Experimental findings from patent publication US4046904A, “Novel penicillin, and its preparation and use” (Sumitomo Chemical Company, Limited, priority 1975, dated 1977) are described below.

The structures appear in SMILES notation. Converted amounts (≈) assume the structure as drawn.

A short description of series [1]: solubility in pharmaceutical diluents. To be noted: e.g. water; relative to said penicillins. In kind it is physicochemical.
Another series deals with Enterobacter aerogenes. As to the kind of experiment: Median MIC, clinical isolates, agar-plate dilution (Table 1). It counts as cell-based. As to the method:
(§1) Note: Compound (I) and Compound (A) were subjected to the test in the form of the sodium salt. The minimum inhibitory concentration (MIC) was determined using the agar-plate dilution method recommended by Japan Society of Chemotherapy.

In another series the test system is Serratia. The series is described as above. It counts as cell-based. How it is done: as §1
The subject of a further series is Escherichia. The series is described as above. In kind it is cell-based. To be noted: read-out: Median minimum inhibitory concentration. As to the method:
as §1

The subject of another series is Klebsiella pneumoniae. The description is as above. It counts as cell-based. How it is done: as §1
The subject of another series is Staphylococcus aureus. The series is described as above. It counts as cell-based. Particulars: 37 clinical isolates, sodium salt, read-out: Median minimum inhibitory concentration. As to the method:
as §1

Another series relates to Pseudomonas aeruginosa. The series is described as above. In kind it is cell-based. To be noted: 49 clinical isolates, sodium salt, read-out: Median minimum inhibitory concentration. How it is done:
as §1

The subject of another series is Proteus vulgaris. Described as above. It counts as cell-based. As to the method: as §1
Another series deals with Proteus morganii. The series is described as above. It counts as cell-based. How it is done: as §1

Turning to `CC1(C)S[C@@H]2[C@H](NC(=O)[C@H](NC(=O)c3ccnnc3O)c3ccc(O)cc3)C(=O)N2[C@H]1C(=O)O` [Compound (I), 6-[D-2-(3-hydroxypyridazine-4-carbonamido)-2-(p-hydroxyphenyl)acetamido]penicillanic acid], the “solubility in pharmaceutical diluents” value in series [1] was “higher solubility”. Also, the MIC50 in the series with Enterobacter aerogenes (Klebsiella aerogenes, 8 clinical isolates, sodium salt, read-out: Median minimum inhibitory concentration) came to 25 µg/mL; in the series with Serratia (6 clinical isolates, sodium salt, read-out: Median minimum inhibitory concentration), 31 µg/mL; in the series with Escherichia it was 12 µg/mL (≈ 24.6 µM); in the series on Klebsiella pneumoniae (26 clinical isolates, sodium salt, read-out: Median minimum inhibitory concentration), 21 µg/mL; in the series on Staphylococcus aureus, 13 µg/mL; with Pseudomonas aeruginosa, 10 µg/mL. The MIC50 with Proteus vulgaris (7 clinical isolates, sodium salt, read-out: Median minimum inhibitory concentration) is 8.8 µg/mL; in the series on Proteus morganii (Morganella morganii, 14 clinical isolates, sodium salt, read-out: Median minimum inhibitory concentration) it was 4.4 µg/mL. Also, the “antibacterial activity relative to Compound (A)” value in the series on Enterobacter aerogenes (clinical isolates), in the series on Serratia (clinical isolates), with Klebsiella pneumoniae (clinical isolates), with Proteus vulgaris (clinical isolates) and with Proteus morganii (clinical isolates) was “superior” in each case.
